# From PMC11373361, “Expanding the inhibitor space of the WWP1 and WWP2 HECT E3 ligases” (Journal of Enzyme Inhibition and Medicinal Chemistry, 2024)
# Values joined by “and” are separate entries in the source; they are usually repeats but may differ in a detail not shown here. Identical values can stand only once.
# Experiments:
# WWP1-L34H = biological target: T1, WWP1-L34H (Homo sapiens, UniProt Q9H0M0); experiment: WWP1 ELISA autoubiquitination assay; format: biochemical; details: for relative activity, single-shot autoubiquitination: 1 mM compound, hit threshold less than 50% relative activity; for relative autoubiquitination activity, single-shot: 500 µM compound, normalised to 0% and 100% controls
# T1 construct: WWP1- 2,3-linker-WW3-WW4-HECT (WWP1-L34H); made in house; host or cells: E. coli BL21-CodonPlus RP (plasmid pET32a-WWP1-L34H, gifted by Dr Wenyu Wen)
# Procedure: (§1) Cell lysate containing His-tagged WWP1-L34H or GST-tagged WWP2-FL proteins were incubated on either 96-well Clear Pierce glutathione or nickel-coated plates for 1 h in PBS. Reaction mixtures of either 3 ng/well GST-Uba1 and 15 ng/well UbcH7 or 10 ng/well His-Uba1 and 150 ng/well His-UbcH7 were incubated together in 25 mM Tris pH 8.0, 100 mM NaCl, 4 mM MgCl2 containing 60 ng/well FLAG-ubiquitin and 1.25 mM ATP for 40 min. A prior 1% BSA plate blocking step is required for nickel-coated plates. After plate washing, 2 μL of the compound was added at the desired concentration (0.1 – 1% DMSO) followed by 18 μL of the reaction mixture. This was then incubated for 2 h with 0% and 100% controls before 100 μL of anti-FLAG M2-Peroxidase HRP (1: 10,000 PBST) was added to each well and incubated for 1 h. Finally, 100 μL of 1 × TMB substrate solution (Invitrogen) was added to each well and incubated for up to 10 min until sufficient blue colour change was observed. To stop the reaction, 100 μL of 1 M HCl was added. GST-tagged Uba1 counter-assay followed a similar protocol first incubating cell lysate for 1 h before adding 20 µL of reaction mixture containing 60 ng/well FLAG-ubiquitin, 1.25 mM ATP, and 1 mM compound at 1% DMSO. His-tagged UbcH7 counter-assays preincubated 3 ng/well GST-Uba1 and 200 ng/well UbcH7 with the reaction mixture components (60 ng/well FLAG-ubiquitin, 1.25 mM ATP, and 1 mM compound at 1% DMSO) for 1 h before incubating onto nickel-coated plates for a further 1 h. All other steps were followed. The plates were washed three times with PBST (and 15 mM Imidazole) between each step. Quantification was measured by absorbance read at 450 nm, standardised to the 0% and 100% activity controls. A visual representation of the assay steps is shown in SI Figure S13. All assay optimisations have been previously reported by Watt and colleagues. IC50 non-linear regression curves were calculated in GraphPad v10.2 (Prism).
# (§2) The DSF hit compounds were initially screened using a single-shot WWP1 and WWP2 ELISA autoubiquitination assay at 500 µM compound (1% DMSO), measuring inhibition against their relative autoubiquitination activity following protocols previously described. […] Four NSC compounds for WWP1 (13151, 73735, 85433 & 637578) and three NSC compounds for WWP2 (26112, 57103 & 217913) were initially selected having a threshold of less than 50% relative activity when compared to 0% and 100% controls (Figure 2).
# (§3) The resulting synthesised analogues were screened using the single-shot ELISA autoubiquitination assay at 1 mM compound concentration (1% DMSO) before IC50 values were calculated for hit compounds (SI Figure 2–4).
# WWP2-FL = biological target: T2, WWP2-FL (Homo sapiens, UniProt O00308); experiment: WWP2 ELISA autoubiquitination assay; format: biochemical; details: for relative activity, single-shot autoubiquitination: 1 mM compound, hit threshold less than 50% relative activity; for relative autoubiquitination activity, single-shot: 500 µM compound, normalised to 0% and 100% controls
# T2 construct: full-length WWP2 (WWP2-FL); made in house; host or cells: E. coli BL21-CodonPlus RP (plasmid pGEX2T-WWP2-FL, Dr Andrew Chantry's Lab)
# Procedure: as §1, §2, §3
# ELISA Autoubiquitination Assay
# Figure S13. Schematic diagram of the WWP2 ELISA autoubiquitination assay. (1a) Immobilisation of GST-Tagged WWP2 on glutathione coated plates. The GST-tagged (green) WWP2-FL (orange) is bound to glutathione (black), further linked via an SSMPB linker (pink) bound to haemoglobin (red). (1b) Reaction mixture of His-E1, His-E2 and flag-tagged Ub. Flag-tagged (red) Ub (dark pink) is first charged to Uba1/E1 (light pink) using ATP (blue) and then transferred to UbcH7/E2 (light brown).
# (2) Ub charged E2 incubation with immobilised WWP2. UbcH7/E2 transfers flag-tagged Ub to WWP2 before WWP2 auto-ubiquitination occurs in the absence or presence of compounds (blue). (3) Incubation of recombinant HRP anti-flag antibody with auto-ubiquitinated WWP2. Anti-flag antibody (purple) containing recombinant HRP (orange) associates with the flag-tagged Ub. (4) HRP-mediated oxidation of TMB.
# Single-electron oxidation of TMB by HRP in the presence of HO creates first a blue colour change, before acidification results in a yellow colour change (450 nm) stopping
# UbcH7 = biological target: T3, UbcH7 (Homo sapiens, UniProt P68036); experiment: UbcH7 counter autoubiquitination assay; format: biochemical; details: 1 mM compound, 1% DMSO, in Table S6 73735 and 217913 synthesised
# T3 construct: made in house; host or cells: E. coli BL21-CodonPlus RP (plasmid pET3a-UbcH7 His, gifted by Professor Martin Scheffner)
# Procedure: as §1
# These preliminary hit compounds were further screened in dose-dependent ELISA autoubiquitination assays from 500 µM − 5 nM, with three NSC compounds for WWP1 (13151, 73735 & 85433) and only two NSC compounds for WWP2 (57103 & 217913) showing a dose-response (SI Table S4). […] To ensure the intended target was being inhibited and not the […] Uba1 (E1) and UbcH7 (E2) enzymes used in the catalytic cascade of the assay, a counter autoubiquitination screen was utilised. Upon counter-activity analysis, only with NSC-217913 did UbcH7 retain more than 90% activity and so this was selected as the sole validated hit compound from our inhibition screen (SI Table S6).
# [1] = synthesised compound, WWP2-FL, 1% DMSO, 95% CI range in brackets
# [2] = sample used directly from the NCI library, dose range 500 µM - 5 nM
# [3] = synthesised compound, WWP1-L34H, 1% DMSO, 95% CI range in brackets
# T2 sequence (O00308 whole entry): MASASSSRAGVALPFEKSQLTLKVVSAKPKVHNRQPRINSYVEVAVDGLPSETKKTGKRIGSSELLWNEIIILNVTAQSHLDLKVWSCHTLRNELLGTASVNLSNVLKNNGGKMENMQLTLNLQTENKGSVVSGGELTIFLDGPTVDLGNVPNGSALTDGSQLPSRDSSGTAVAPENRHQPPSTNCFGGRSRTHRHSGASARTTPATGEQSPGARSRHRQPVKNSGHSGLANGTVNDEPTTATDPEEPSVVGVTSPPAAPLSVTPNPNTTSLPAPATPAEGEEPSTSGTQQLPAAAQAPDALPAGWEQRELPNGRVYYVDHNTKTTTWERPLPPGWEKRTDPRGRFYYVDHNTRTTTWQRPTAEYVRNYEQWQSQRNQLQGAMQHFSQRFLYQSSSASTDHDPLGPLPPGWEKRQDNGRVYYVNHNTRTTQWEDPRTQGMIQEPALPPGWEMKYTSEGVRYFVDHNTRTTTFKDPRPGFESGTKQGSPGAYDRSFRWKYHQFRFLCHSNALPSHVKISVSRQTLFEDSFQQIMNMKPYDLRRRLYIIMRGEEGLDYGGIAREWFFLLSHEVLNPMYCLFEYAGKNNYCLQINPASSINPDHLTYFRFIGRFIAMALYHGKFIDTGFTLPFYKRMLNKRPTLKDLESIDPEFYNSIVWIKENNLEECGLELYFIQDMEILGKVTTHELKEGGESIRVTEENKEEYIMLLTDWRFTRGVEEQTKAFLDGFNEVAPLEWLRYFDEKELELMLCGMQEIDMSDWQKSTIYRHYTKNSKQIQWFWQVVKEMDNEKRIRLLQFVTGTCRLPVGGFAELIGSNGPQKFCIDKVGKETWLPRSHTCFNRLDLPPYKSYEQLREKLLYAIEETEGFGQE
# T3 sequence (P68036 whole entry): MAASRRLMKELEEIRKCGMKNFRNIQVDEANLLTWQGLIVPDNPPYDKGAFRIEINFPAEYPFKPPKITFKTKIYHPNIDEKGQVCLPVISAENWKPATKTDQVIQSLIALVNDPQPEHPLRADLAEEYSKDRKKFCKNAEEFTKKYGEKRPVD
molecule,measurement,setting,value
"O=C(CSc1nc2nc(Cl)c(Cl)nc2[nH]1)N1CCOCC1 [Compound 9, 2-({5,6-dichloro-1H-imidazo[4,5-b]pyrazine-2-yl}sulfanyl)acetylmorpholine]","relative activity, single-shot autoubiquitination",WWP1-L34H; 1% DMSO,failed to reach the activity threshold
same,IC50,WWP2-FL; [1],622 µM
"CCOC(=O)CSc1nc2nccnc2[nH]1 [Compound 20, Ethyl 2-({1H-imidazo[4,5-b]pyrazine}sulfanyl-2-yl)acetate]","relative activity, single-shot autoubiquitination",WWP1-L34H; 1% DMSO,reducing relative activity
NC(=Nc1nc(-c2ccccn2)cc2ccccc12)c1ccccn1 [NSC-637578],"relative autoubiquitination activity, single-shot",WWP1-L34H; 1% DMSO,less than 50%
"CCOC(=O)CNC(=O)CSc1nc2nc(Cl)c(Cl)nc2[nH]1 [Compound 12, Ethyl 2-({5,6-dichloro-1H-imidazo[4,5-b]pyrazine-2-yl}sulfanyl)acetamidoacetate]","relative activity, single-shot autoubiquitination",WWP1-L34H; 1% DMSO,better single-shot data
same,"relative activity, single-shot autoubiquitination",WWP2-FL; 1% DMSO,better single-shot data
"CCOC(=O)CSc1nc2nc(Cl)c(Cl)nc2[nH]1 [Compound 6, Ethyl 2-({5,6-dichloro-1H-imidazo[4,5-b]pyrazine-2-yl}sulfanyl)-acetate]",IC50,WWP1-L34H; [2],33.3 µM
same,IC50,WWP1-L34H; [3],158 µM
same,"relative autoubiquitination activity, single-shot",WWP2-FL; 1% DMSO,less than 50%
same,IC50,WWP2-FL; [2],< 100 µM and 69.8 µM
same,WWP2 IC50,"WWP2-FL; synthesised compound, WWP2-FL, 1% DMSO, 95% CI range in brackets, listed as 6/217913",Unstable^a
same,WWP2 IC50,"WWP2-FL; synthesised compound, WWP2-FL, 1% DMSO, 95% CI range in brackets, listed as NSC-217913",too weak to determine accurately
same,UbcH7 Activity,UbcH7,92.2 ± 1.1%
same,UbcH7 Activity,UbcH7; listed as NSC-217913,more than 90%
"Nc1nc2nc(Br)cnc2s1 [Compound 26, 5-bromothiazolo[4,5-b]pyrazine-2-amine]","relative activity, single-shot autoubiquitination",WWP2-FL; 1% DMSO,some decrease in activity
"CCOC(=O)CSc1nc2nc(Cl)cnc2[nH]1 [Compound 5, Ethyl 2-({5-chloro-1H-imidazo[4,5-b]pyrazine-2-yl}sulfanyl)acetate]","relative activity, single-shot autoubiquitination",WWP2-FL; 1% DMSO,some decrease in activity
"O=C(O)CNC(=O)CSc1nc2nc(Cl)c(Cl)nc2[nH]1 [Compound 16, 2-({5,6-dichloro-1H-imidazo[4,5-b]pyrazine-2-yl}sulfanyl)acetamidoacetic acid]","relative activity, single-shot autoubiquitination",WWP1-L34H; 1% DMSO,better single-shot data
same,"relative activity, single-shot autoubiquitination",WWP2-FL; 1% DMSO,better single-shot data
COc1cc(-c2ccc(Nc3ccccc3C(=O)O)c(OC)c2)ccc1Nc1ccccc1C(=O)O [NSC-73735],"relative autoubiquitination activity, single-shot",WWP1-L34H; 1% DMSO,less than 50%
same,IC50,WWP2-FL; [2],49.1 µM
same,UbcH7 Activity,UbcH7,62.5 ± 2.4%
O=[N+]([O-])c1cc([N+](=O)[O-])c2cccnc2c1O [NSC-57103],"relative autoubiquitination activity, single-shot",WWP2-FL; 1% DMSO,less than 50%
same,IC50,WWP2-FL; [2],513 µM
"CCOC(=O)Cc1cn2cc(Cl)ncc2n1 [Compound 2, Ethyl 6-chloroimidazo[1,2-a]pyrazine-2-acetate]","relative activity, single-shot autoubiquitination",WWP2-FL; 1% DMSO,some decrease in activity
"COC(=O)[C@H](COC(C)(C)C)NC(=O)CSc1nc2nc(Cl)c(Cl)nc2[nH]1 [Compound 14, Methyl 3-(tert-butoxy)-2(S)-[2-({5,6-dichloro-1H-imidazo[4,5-b]pyrazine-2-yl}sulfanyl)acetamido]propionate]","relative activity, single-shot autoubiquitination",WWP1-L34H; 1% DMSO,rather small decrease in relative activity
same,"relative activity, single-shot autoubiquitination",WWP2-FL; 1% DMSO,rather small decrease in relative activity
CCCC(=O)CSc1nc2nc(Cl)c(Cl)nc2[nH]1 [Compound 10],"relative activity, single-shot autoubiquitination",WWP1-L34H; 1% DMSO,rather small decrease in relative activity
same,"relative activity, single-shot autoubiquitination",WWP2-FL; 1% DMSO,rather small decrease in relative activity
"CCCC(C)Sc1nc2nc(Cl)c(Cl)nc2[nH]1 (stereo not drawn) [Compound 8, 2-({5,6-dichloro-1H-imidazo[4,5-b]pyrazine-2-yl}sulfanyl)pentane]","relative activity, single-shot autoubiquitination",WWP1-L34H; 1% DMSO,rather small decrease in relative activity
same,"relative activity, single-shot autoubiquitination",WWP2-FL; 1% DMSO,rather small decrease in relative activity
"N#CCSc1nc2nc(Cl)c(Cl)nc2[nH]1 [Compound 7, 2-({5,6-Dichloro-1H-imidazo[4,5-b]pyrazine-2-yl}sulfanyl)acetonitrile]",IC50,WWP2-FL; [1],856 µM
same,WWP2 IC50,WWP2-FL; [1],only limited inhibition
same,UbcH7 Activity,UbcH7,94.2 ± 0.8%
Cc1ccc(C=C2C(Cl)=C(Cl)C(Cl)=C2Cl)cc1 [NSC-26112],"relative autoubiquitination activity, single-shot",WWP2-FL; 1% DMSO,less than 50%
"O=C(CSc1nc2nc(Cl)c(Cl)nc2[nH]1)N[C@@H](CO)C(=O)O [Compound 17, 3-hydroxy-2(S)-[({5,6-dichloro-1H-imidazo[4,5-b]pyrazine-2-yl}sulfanyl)acetamido]propanoic acid]",UbcH7 Activity,UbcH7,88.8 ± 0.7%
"CCOC(=O)Cc1cn2cc(Cl)nc(Cl)c2n1 [Compound 4, Ethyl 6,8-Dichloroimidazo[1,2-a]pyrazine-2-acetate]","relative activity, single-shot autoubiquitination",WWP2-FL; 1% DMSO,some decrease in activity
O=C(/C=C/c1ccccc1Cl)c1ccc(O)cc1 [NSC-13151],"relative autoubiquitination activity, single-shot",WWP1-L34H; 1% DMSO,less than 50%
same,IC50,WWP1-L34H; [2],397 µM
"O=C(O)CSc1nc2nc(Cl)c(Cl)nc2[nH]1 [Compound 15, ({5,6-dichloro-1H-imidazo[4,5-b]pyrazine-2-yl}sulfanyl)acetic acid]",IC50,WWP1-L34H; [3],375 µM
same,IC50,WWP2-FL; [1],666 µM
same,WWP2 IC50,WWP2-FL; [1],only weakly
same,UbcH7 Activity,UbcH7,93.0 ± 1.0%
same,melting point,,219.1 to 220.7 °C
CCc1oc2ccccc2c1C(=O)c1cc(Br)c(O)c(Br)c1 [NSC-85433],"relative autoubiquitination activity, single-shot",WWP1-L34H; 1% DMSO,less than 50%
same,IC50,WWP1-L34H; [2],< 100 µM and 92.4 µM
same,IC50,WWP2-FL; [2],256 µM
same,UbcH7 Activity,UbcH7,7.5 ± 0.6%
"O=C(O)CCSc1nc2nc(Cl)c(Cl)nc2[nH]1 [Compound 13, 3-({5,6-Dichloro-1H-imidazo[4,5-b]pyrazine-2-yl}sulfanyl)propionic acid]","relative activity, single-shot autoubiquitination",WWP1-L34H; 1% DMSO,failed to reach the activity threshold
same,IC50,WWP2-FL; [1],603 µM
"CCOC(=O)CSc1nc2cncnc2[nH]1 [Compound 21, Ethyl 2-({9H-imidazo[4,5-d]pyrimidine}sulfan-8-yl)acetate]","relative activity, single-shot autoubiquitination",WWP1-L34H; 1% DMSO,reducing relative activity
"Ethyl 2-[({imidazo[4,5-c]pyridine}sulfan-2-yl-5N-(ethyl-2-acetate))]acetate [Compound 23]","relative activity, single-shot autoubiquitination",WWP1-L34H; 1% DMSO,reducing relative activity
